Experimental data taken from paper PMC6522510 (Nature Communications, 2019).
Structures can show the parent of a compound that is named as a salt. Where two headings read alike, the source gives them in different places.

Key:
Set-up in all cases: species or system AML cell lines (8); Primary HTS, single concentration about 10 uM, Cell Titer Glo viability; log10 luminescence, per cent inhibition relative to cycloheximide control
Details in all cases: 72 h, relative to cycloheximide control, log10 luminescence, inhibitor
[1] = tested on: M07e
[2] = tested on: U937
[3] = tested on: MOLM-13
[4] = tested on: ML-2
[5] = tested on: MV4-11
[6] = tested on: CMK
[7] = tested on: CMS
[8] = tested on: CHRF288-11

Compound	M07e %inh [1]	U937 %inh [2]	MOLM-13 %inh [3]	ML-2 %inh [4]	MV4-11 %inh [5]	CMK %inh [6]	CMS %inh [7]	CHRF288-11 %inh [8]	M07e %inh ([1]; M07e %inh, 10 µM)	MOLM-13 %inh ([3]; MOLM-13 %inh, 10 µM)	ML-2 %inh ([4]; ML-2 %inh, 10 µM)	MV4-11 %inh ([5]; MV4-11 %inh, 10 µM)	CMK %inh ([6]; CMK %inh, 10 µM)	CHRF288-11 %inh ([8]; CHRF288-11 %inh, 10 µM)	U937 %inh ([2]; U937 %inh, 10 µM)	CMS %inh ([7]; CMS %inh, 10 µM)
CCCCNC(=O)NS(=O)(=O)c1ccc(C)cc1 [SJ000285613-7, TOLBUTAMIDE]	-0.3777%	-1.884%	-1.699%	1.608%	0.676%	-3.705%	0.8795%	-1.378%								
CC(C)[N+](C)(CCC(C(N)=O)(c1ccccc1)c1ccccc1)C(C)C [SJ000285636-4, ISOPROPAMIDE IODIDE]	2.458%	-1.123%	19.61%	-0.5962%	-0.6779%	-6.961%	-2.262%	8.188%								
COc1cccc(OC)c1C(=O)N[C@@H]1C(=O)N2[C@@H]1SC(C)(C)[C@@H]2C(=O)O [SJ000285650-3, METHICILLIN SODIUM]	-0.3426%	1.642%	-0.5712%	-0.07595%	-1.181%	-1.148%	-3.883%	120.3%								
CN(C)[C@@H]1C(=O)C(C(N)=O)=C(O)[C@@]2(O)C(=O)C3=C(O)c4c(O)cccc4[C@@](C)(O)[C@H]3[C@H](O)[C@@H]12 [SJ000285682-4, OXYTETRACYCLINE | OXYTETRACYCLINE DIHYDRATE | OXYTETRACYCLINE HYDROCHLORIDE | OXYTETRACYCLINE (TERRAMYCIN)]	-0.1554%	0.3352%	3.957%	0.3169%	-1.23%	-2.364%	0.1991%	25.02%								
Cn1c(=O)c2c(ncn2C)n(C)c1=O [SJ000285694-6, CAFFEINE]	4.484%	-2.594%	-2.617%	0.4974%	-1.738%	-3.637%	0.8967%	-2.164%								
CCn1nc(C(=O)O)c(=O)c2cc3c(cc21)OCO3 [SJ000285711-7, CINOXACIN]	5.282%	2.404%	1.821%	-1.975%	3.259%	0.4853%	0.852%	0.6656%								
CN(C)/N=N/c1[nH]cnc1C(N)=O [SJ000285718-4, DACARBAZINE]	-1.918%	1.118%	31.43%	-0.5509%	4.433%	31.68%	-1.6%	9.396%								
C#C[C@]1(O)CC[C@H]2[C@@H]3CCC4=Cc5oncc5C[C@]4(C)[C@H]3CC[C@@]21C [SJ000285723-7, DANAZOL]	0.05908%	4.655%	13.86%	0.4162%	3.859%	-0.5732%	-0.3914%	3.76%								
CC(=O)N(O)CCCCCNC(=O)CCC(=O)N(O)CCCCCNC(=O)CCC(=O)N(O)CCCCCN [SJ000285725-5, DEFEROXAMINE MESYLATE]		32.98%					49.53%		9.207%	54.77%	13.98%	0.1216%	30.74%	11.75%		
C/C=C(/C(=C/C)c1ccc(O)cc1)c1ccc(O)cc1 [SJ000285735-4, DIENESTROL]									-0.9445%	3.801%	0.7684%	-1.794%	4.084%	-2.974%	2.437%	-3.971%
C/C=C(/C(=C/C)c1ccc(O)cc1)c1ccc(O)cc1 [SJ000285735-5, DIENESTROL]									2.558%	17.84%	1.532%	1.913%	33.82%	-2.147%	2.402%	-2.72%
CCN(CC)C(=O)N1CCN(C)CC1 [SJ000285736-4, DIETHYLCARBAMAZINE CITRATE]	-3.005%	2.79%	1.95%	-1.11%	2.119%	2.446%	-4.008%	-2.146%								
O=C(O)c1cc(-c2ccc(F)cc2F)ccc1O [SJ000285738-4, DIFLUNISAL]	2.006%	4.296%	1.208%	-0.2454%	3.937%	-0.9892%	0.6702%	-4.662%								
C[C@H]1O[C@@H](O[C@H]2[C@@H](O)C[C@H](O[C@H]3[C@@H](O)C[C@H](O[C@H]4CC[C@@]5(C)[C@H](CC[C@@H]6[C@@H]5C[C@@H](O)[C@]5(C)[C@@H](C7=CC(=O)OC7)CC[C@]65O)C4)O[C@@H]3C)O[C@@H]2C)C[C@H](O)[C@@H]1O [SJ000285739-5, DIGOXIN]									115.6%	106.4%	70.4%	85.53%	94.03%	126.2%	89.45%	110.4%
C[C@H]1O[C@@H](O[C@H]2[C@@H](O)C[C@H](O[C@H]3[C@@H](O)C[C@H](O[C@H]4CC[C@@]5(C)[C@H](CC[C@@H]6[C@@H]5C[C@@H](O)[C@]5(C)[C@@H](C7=CC(=O)OC7)CC[C@]65O)C4)O[C@@H]3C)O[C@@H]2C)C[C@H](O)[C@@H]1O [SJ000285739-6, DIGOXIN]									102.6%	91.77%	63.97%	80.5%	86.52%	118.6%	81.18%	96.75%
CN(C)CCOC(C)(c1ccccc1)c1ccccn1 (stereo not shown) [SJ000285751-7, DOXYLAMINE SUCCINATE]	1.23%	-1.083%	4.161%	-0.5397%	-5.123%	-1.167%	-0.1312%	11.69%								
C[C@]12CC[C@@H]3c4ccc(O)cc4CC[C@H]3[C@@H]1CCC2=O [SJ000285760-7, ESTRONE]									1.639%	-0.4054%	0.07519%	2.184%	0.6093%	-1.204%	0.9734%	0.8051%
C[C@]12CC[C@@H]3c4ccc(O)cc4CC[C@H]3[C@@H]1CCC2=O [SJ000285760-8, ESTRONE]									2.553%	-0.7843%	0.7014%	1.151%	-1.298%	3.613%	-0.6937%	-1.181%
C=C(CC)C(=O)c1ccc(OCC(=O)O)c(Cl)c1Cl [SJ000285761-4, ETHACRYNIC ACID]	4.659%	4.395%	7.494%	6.312%	1.71%	27.12%	-0.1029%	13.52%								
CCc1cc(C(N)=S)ccn1 [SJ000285764-4, ETHIONAMIDE]	0.2673%	-1.304%	-0.3958%	0.2945%	-3.503%	-7.383%	-3.091%	8.533%								
